Reference: patent US20260216182A1, “PYRIDAZINE NLRP3 INHIBITOR COMPOUND, PHARMACEUTICAL COMPOSITION, AND PREPARATION METHOD THEREFOR AND USE THEREOF” (CHANGCHUN GENESCIENCE PHARMACEUTICAL CO., LTD., priority 2022, published 2026)
Read-outs that look alike come from different tables or passages of the source. Marks after values point to notes of the source that are not given here.

Legend:
mouse NASH model = assay: Mouse NASH model test (HFD + fructose), combination with semaglutide; assay type: in vivo, mice
Protocol: Test Example 6 Mouse NASH Model Test
After the animals arrived and acclimatized for 1 week, they were randomly divided into 2 groups. 48 mice were fed a high-fat diet (HFD) and had free access to 15% fructose water (w/w). After the animals were fed for 20 weeks, they were fasted for 6 h, and fasting blood glucose (FBG) was monitored by a blood glucose meter. Orbital blood was taken from all animals, and serum was collected by centrifugation to detect serum ALT levels. Animals were randomly divided into 6 groups according to their body weight, FBG and ALT levels. After that, the high fat feed (HFD) was replaced with the modified high fat feed (mHFD), and the mice had free access to 15% fructose water (v/w). The 8 mice in the other group were fed normal diet and water.
The first end point of the experiment: After 8 weeks of administration, the end point body weight was recorded and the animals were fasted for 6 h, and fasting blood glucose was measured with a blood glucose meter. The mice were then euthanized by CO2 and serum was collected by orbital blood sampling and stored at −80° C. for insulin and biochemical analysis. The animal's liver was taken and the liver weight was recorded. The liver was divided into four parts, one part was quick-frozen in liquid nitrogen for biochemical analysis, one part was placed in tissue fixative for pathological analysis, one part was stored in RNAlater for qPCR detection (backup for later use), and one part was quick-frozen in liquid nitrogen for possible subsequent detection.
The second end point of the experiment: 3 mice were kept in each group for 6 weeks for further observation. The end point body weight was recorded and the mice were fasted for 6 h. Fasting blood glucose was tested with a blood glucose meter. The mice were then euthanized by CO2 and serum was collected by orbital blood sampling and stored at −80° C. for insulin and biochemical analysis. The animal's liver was taken and the liver weight was recorded. The liver was divided into four parts, one part was quick-frozen in liquid nitrogen for biochemical analysis, one part was placed in tissue fixative for pathological analysis, one part was stored in RNAlater for qPCR detection (backup for later use), and one part was quick-frozen in liquid nitrogen for subsequent detection.

SD rats = assay: 14-day toxicity experiment on rats: safety observations; assay type: in vivo
Text: (§1) Test Example 7 14-Day Toxicity Experiment on Rats
(§2) SD rats were orally gavaged with compound 062 and the control compound once a day for a total of 14 times. The toxic reactions caused by compound 062 and the control compound were observed and their toxicokinetics were studied.
An appropriate amount of the test compound was weighed (weighed amount=theoretical required amount/content), and fully ground and dispersed in a mortar (agate or ceramic). Then, an appropriate amount of [5% Solutol HS15 in 95% (0.2% CMC-Na)] was added and the mixture was ground until there were no obvious large particles. Then the mortar was cleaned with [5% Solutol HS15 in 95% (0.2% CMC-Na)] in small amounts several times until there was no drug powder residue observed with the naked eye. The mixture was transferred to a suitable container, well stirred and mixed, and the remaining [5% Solutol HS15 in 95% (0.2% CMC-Na)] was further added to the required volume (streaking method). The system was stirred and mixed for at least 20 min, thereby giving the test sample formulation.
(§3) Oral gavage. The drug was stirred for at least 30 min prior to administration and continuously stirred throughout the administration. The dosing frequency was once a day for 14 consecutive days, and the dosing amount was 10 mL/kg (the dosing amount was calculated based on the most recent weight).
Dosing period: All surviving animals in the main test group were observed twice a day, once before and after dosing respectively, and observed in detail at least once a week.
Observation contents: The main observation contents include (but not limited to) survival status, injection site, skin, hair, eyes, ears, nose, mouth, chest, abdomen, urogenital area, limbs, as well as breathing, movement, urination, defecation, mental or behavioral changes, etc.
Dosing period: All surviving animals were weighed at least once a week. The body weight of animals in the toxicokinetics (TK) group was only used to calculate the dosage. The body weight data were not statistically analyzed and were only presented as individual data in the summary report.
Dosing period: The food intake of the surviving animals in the main test group was weighed at least once a week, and the average food intake was expressed in g/animal/day.
• End of dosing period: once; • Blood sampling route: abdominal aorta; • Animals: Plan to dissect surviving animals; • Blood was collected into tubes containing anticoagulant (EDTA-K2), and hematological indices were detected using a Sysmex XN-1000V fully automatic blood analyzer; blood was collected into anticoagulant tubes containing sodium citrate, and coagulation indices were detected using a Sysmex CS-5100 coagulometer. The specific detection indices are as follows:
• End of dosing period: once; • Blood sampling route: abdominal aorta; • Animals: Plan to dissect surviving animals; • The animals were fasted overnight, and whole blood was collected into a test tube containing a coagulant and a separation gel. Serum was obtained by centrifugation, and serum biochemical indices were detected using a Hitachi-7180 biochemical analyzer. The specific detection indices are as follows:
• Dissection time: end of dosing period (D15); • Anesthesia method: The specifications of the anesthetic mixture are ketamine of 37.5 mg/mL and xylazine of 2.5 mg/mL. The euthanasia dose is 2-4 mL/kg of the mixture (the anesthetic dose of the animal planned for dissection is calculated based on the body weight after fasting overnight, the concentration will be recorded in the original record and presented in the summary report, and the dose can be adjusted according to the anesthetic effect) by intraperitoneal injection. […]

[1] = 14-day toxicity experiment on rats: toxicokinetics; assay type: in vivo, SD rats; settings: for Cmax / AUC(0-t): SD, rat, plasma, po; for AUC(0-t): read-out: AUC(0-24)
Protocol: as §1, §2, §3
Different time points before and after administration on D1 and D14.
Group 2 to Group 7: Before dosing and 0.5 h, 1 h, 2 h, 4 h, 8 h and 24 h after dosing (before dosing on D2 and/or D15).
Whole blood was collected into a blood collection tube containing EDTA-K2, the tube was immediately and gently inverted upside down several times to mix the system thoroughly, and placed on crushed ice/ice pack. Blood was centrifuged (2000 g, 10 min) at 4° C. (set temperature, allowable temperature range: 2 to 8° C.) within 1 h after blood collection. The collected plasma was divided into two portions into separate labeled EP tubes (one for testing and one for standby testing), and stored in an ultra-low temperature refrigerator (−70° C. to −90° C.) within 2 h after collection. The samples were stored in dry ice during transportation and transfer.
The drug concentration in plasma was analyzed by using LC-MS/MS, verified blood drug concentration data was provided, and the main toxicokinetic parameters (AUC0-t, Cmax and Tmax) were calculated and compared.

[2] = 30 mg/kg, 30 mpk oral, Day 1, plasma
[3] = 30 mg/kg, 30 mpk oral, Day 14, plasma
[4] = 60 mg/kg, 60 mpk oral, Day 1, plasma
[5] = 60 mg/kg, 60 mpk oral, Day 14, plasma
[6] = 100 mg/kg, 100 mpk oral, Day 1, plasma
[7] = 100 mg/kg, 100 mpk oral, Day 14, plasma

## CC#Cc1ccc2c(-c3ccc(Cl)cc3O)nnc(NC[C@H](O)CO)c2c1 [Compound 062, (S)-3-((4-(4-chloro-2-hydroxyphenyl)-7-(prop-1-yn-1-yl)phthalazin-1-yl)amino) propan-1,2-diol]
Mouse NASH model; combination with 0.025 mpk semaglutide, FIG. 5
  rebound of mouse body weight after drug withdrawal: significantly inhibited the rebound of mouse body weight after drug withdrawal
Mouse NASH model; combination with 0.025 mpk semaglutide, FIG. 6
  food intake: without affecting food intake
Mouse NASH model; serum, combination with 0.025 mpk semaglutide, FIG. 7
  levels of ALT, AST, LDL and HDL after drug withdrawal: significantly inhibited the levels of ALT, AST, LDL and HDL after drug withdrawal
SD rats; 14-day rat study
  safety (conclusion in words): good safety
SD rats; 30, 60, 100 mg/kg/day oral, 14 days
  Death/moribundity: None
SD rats; exposure in high-dose group 4.8 times that of control compound
  safety compared with the control compound: much better than that of the control compound
[1]; 100 mg/kg high-dose group
  exposure in the high-dose group relative to the control compound: 4.8 times
[1]; [2]
  Cmax: 19900 ng/mL
  AUC(0-t): 279 µg·h/mL
[1]; [3]
  Cmax: 31700 ng/mL
  AUC(0-t): 384 µg·h/mL
[1]; [4]
  Cmax: 41100 ng/mL
  AUC(0-t): 622 µg·h/mL
[1]; [5]
  Cmax: 68600 ng/mL
  AUC(0-t): 1120 µg·h/mL
[1]; [6]
  Cmax: 68200 ng/mL
  AUC(0-t): 1120 µg·h/mL
[1]; [7]
  Cmax: 127000 ng/mL
  AUC(0-t): 2120 µg·h/mL

## CC(C)(O)CNc1nnc(-c2ccc(Cl)cc2O)c2ccncc12 [Control compound]
Mouse NASH model; control compound combined with semaglutide
  rebound of body weight after drug withdrawal: neither the control compound combined with semaglutide nor the groups of low/high dose semaglutide alone inhibited the rebound of body weight
SD rats; 30 mg/kg
  animals with swelling of the left and right hind limbs and ears, females: 2/5
  animals with swelling of the left and right hind limbs and ears, males: 4/5
SD rats; 100 mg/kg
  Gross anatomy, animals with unplanned autopsy (dead animals): showed discoloration of the lungs and/or liver.
SD rats; 100 mg/kg, male, TK group, found dead D 6
  weight loss before death vs before dosing, animal 4006#: weight loss (vs before dosing: ↓28.4%)
SD rats; 100 mg/kg, male, found dead D 4
  body weight decrease before death vs before dosing, animal 4101#: ↓6.25%); before death, animal 4006# showed
SD rats; D 7, high (100 mg/kg)
  body weight reduction vs. control group: 22.5%
SD rats; D 7, low (30 mg/kg)
  body weight reduction vs. control group: 7.7%
SD rats; D 7, medium (60 mg/kg)
  body weight reduction vs. control group: 16.7%
SD rats; D 14, high (100 mg/kg)
  body weight reduction vs. control group: 23.3%
SD rats; D 14, low (30 mg/kg)
  body weight reduction vs. control group: 8.5%
SD rats; D 14, medium (60 mg/kg)
  body weight reduction vs. control group: 14.6%
SD rats; females, high (100 mg/kg)
  #NEU increase: 687.1%
  MONO % increase: 290.3%
SD rats; females, low (30 mg/kg)
  #MONO increase: 187.7%
  MONO % increase: 63.6%
SD rats; females, medium (60 mg/kg)
  #MONO increase: 237.0%
  #NEU increase: 251.8%
  MONO % increase: 100.6%
SD rats; females, ≥100 mg/kg
  ALB reduction vs. control group: females: at dose ≥100 mg/kg, ALB (↓28.5%)
  GLO increase vs. control group: GLO (: ↑ 61.3%) was significantly increased
SD rats; males, high (100 mg/kg)
  #MONO increase vs. control group: 313.0%
SD rats; males, low (30 mg/kg)
  #MONO increase vs. control group: #MONO increased (low: ↑ 154.4%,
SD rats; males, medium (60 mg/kg)
  #MONO increase vs. control group: 215.8%
SD rats; males, ≥100 mg/kg
  #EOS increase vs. control group: 816.7%
  MONO % increase vs. control group: 160.3%
SD rats; ≥30 mg/kg, males and females
  body weight gain vs. control group: low body weight gain
[1]; [2]
  Cmax: 17500 ng/mL
  AUC(0-t): 248 µg·h/mL
[1]; [3]
  Cmax: 13200 ng/mL
  AUC(0-t): 202 µg·h/mL
[1]; [4]
  Cmax: 21400 ng/mL
  AUC(0-t): 360 µg·h/mL
[1]; [5]
  Cmax: 22400 ng/mL
  AUC(0-t): 324 µg·h/mL
[1]; [6]
  Cmax: 24000 ng/mL
  AUC(0-t): 405 µg·h/mL
[1]; [7]
  Cmax: 26700 ng/mL
  AUC(0-t): 439 µg·h/mL
